Assay results reported in publication PMC2579691, “Safety and pharmacokinetics of motesanib in combination with gemcitabine for the treatment of patients with solid tumours” (British Journal of Cancer, 2008).

Legend:
[1] = plasma pharmacokinetics of gemcitabine in patients (phase 1b); conditions: for Tmax: h (range)
CYP3A4 = test system: CYP3A4; set-up: method as in Shipley et al, 1992; Mini et al, 2006; conditions: ref Shipley et al, 1992; Mini et al, 2006; cited from earlier work
clinical = conditions: human, in vivo
advanced solid tumours = assay: best tumour response per modified RECIST; type: in vivo, human; conditions: for Confirmed complete response, n (%) / Confirmed objective response, % (95% CI) / Confirmed partial response, n (%) / Progressive disease, n (%) / Stable disease, n (%): with gemcitabine 1000 mg m^−2
Experimental: Computed tomography (CT) or magnetic resonance imaging (MRI) for tumour assessments were performed at baseline and at 12-week intervals, or as clinically indicated. In patients with baseline measurable disease tumour response per modified RECIST ([Therasse et al, 2000]) was assessed by the investigator. Complete and partial responses were confirmed using CT or MRI scans no less than 28 days after the initial response.

VEGFR1 = test system: VEGFR1; set-up: method as in Polverino et al, 2006; conditions: ref Polverino et al, 2006; cited from earlier work
[2] = set-up: method as in Rosen et al, 2007; conditions: motesanib monotherapy, first-in-human study; ref Rosen et al, 2007; cited from earlier work
[3] = human, in vivo
[4] = test system: human umbilical vein endothelial cell (HUVEC) proliferation; conditions: in vitro, cited from earlier work
[5] = dose-limiting toxicities and adverse events in patients (phase 1b)
Kit = test system: Kit; set-up: method as in Polverino et al, 2006; conditions: ref Polverino et al, 2006; cited from earlier work
PDGFR = test system: PDGFR; set-up: method as in Polverino et al, 2006; conditions: ref Polverino et al, 2006; cited from earlier work
VEGFR3 = test system: VEGFR3; set-up: method as in Polverino et al, 2006; conditions: ref Polverino et al, 2006; cited from earlier work
[6] = human, in vivo; remark: listed apart in the source

Nc1ccn([C@@H]2O[C@H](CO)[C@@H](O)C2(F)F)c(=O)n1 [gemcitabine]
effect of motesanib coadministration on pharmacokinetics ([1]; combination therapy): not markedly affected | AUC(0-t) ([1]; human, plasma, intravenous, 1000 mg m^−2, AUC0–2, week 1, range across motesanib dose groups): 4720 to 6270 ng·h/mL | AUC(0-t) ([1]; human, plasma, intravenous, AUC0–2, week 2, range across motesanib dose groups): 6560 to 7920 ng·h/mL | Cmax ([1]; human, plasma, iv, 1000 mg m^−2): 9720 ng/mL | AUC(0-t) ([1]; human, plasma, iv, 1000 mg m^−2, AUC0–2, μg h ml^−1 (s.d.), gemcitabine 1000 mg m^−2 i.v. alone (week 1, day 1), motesanib 50 mg QD cohort): 5210 ng·h/mL | AUC(0-t) ([1]; human, plasma, iv, 1000 mg m^−2, AUC0–2, μg h ml^−1 (s.d.), gemcitabine 1000 mg m^−2 i.v. alone (week 1, day 1), motesanib 75 mg BID cohort): 6270 ng·h/mL | AUC(0-t) ([1]; human, plasma, iv, 1000 mg m^−2, AUC0–2, μg h ml^−1 (s.d.), gemcitabine 1000 mg m^−2 i.v. alone (week 1, day 1), motesanib 125 mg QD cohort): 4720 ng·h/mL | concentration at 2 h ([1]; human, plasma, iv, 1000 mg m^−2, C2, ng ml^−1 (s.d.), gemcitabine 1000 mg m^−2 i.v. alone (week 1, day 1), motesanib 50 mg QD cohort): 104 ng/mL | concentration at 2 h ([1]; human, plasma, iv, 1000 mg m^−2, C2, ng ml^−1 (s.d.), gemcitabine 1000 mg m^−2 i.v. alone (week 1, day 1), motesanib 75 mg BID cohort): 101 ng/mL | concentration at 2 h ([1]; human, plasma, iv, 1000 mg m^−2, C2, ng ml^−1 (s.d.), gemcitabine 1000 mg m^−2 i.v. alone (week 1, day 1), motesanib 125 mg QD cohort): 88 ng/mL | Tmax ([1]; human, plasma, iv, 1000 mg m^−2, tmax, gemcitabine 1000 mg m^−2 i.v. alone (week 1, day 1), motesanib 50 mg QD cohort): 0.5 h | Tmax ([1]; human, plasma, iv, 1000 mg m^−2, tmax, gemcitabine 1000 mg m^−2 i.v. alone (week 1, day 1), motesanib 75 mg BID cohort): 0.5 h | Tmax ([1]; human, plasma, iv, 1000 mg m^−2, tmax, gemcitabine 1000 mg m^−2 i.v. alone (week 1, day 1), motesanib 125 mg QD cohort): 0.38 h | AUC(0-t) ([1]; human, plasma, iv, AUC0–2, μg h ml^−1 (s.d.), gemcitabine 1000 mg m^−2 i.v. in combination with motesanib 50 mg QD (week 2, day 1)): 7920 ng·h/mL | AUC(0-t) ([1]; human, plasma, iv, AUC0–2, μg h ml^−1 (s.d.), gemcitabine 1000 mg m^−2 i.v. in combination with motesanib 75 mg BID (week 2, day 1)): 7090 ng·h/mL | AUC(0-t) ([1]; human, plasma, iv, AUC0–2, μg h ml^−1 (s.d.), gemcitabine 1000 mg m^−2 i.v. in combination with motesanib 125 mg QD (week 2, day 1)): 6560 ng·h/mL | concentration at 2 h ([1]; human, plasma, iv, C2, ng ml^−1 (s.d.), gemcitabine 1000 mg m^−2 i.v. in combination with motesanib 50 mg QD (week 2, day 1)): 183 ng/mL | concentration at 2 h ([1]; human, plasma, iv, C2, ng ml^−1 (s.d.), gemcitabine 1000 mg m^−2 i.v. in combination with motesanib 75 mg BID (week 2, day 1)): 234 ng/mL | concentration at 2 h ([1]; human, plasma, iv, C2, ng ml^−1 (s.d.), gemcitabine 1000 mg m^−2 i.v. in combination with motesanib 125 mg QD (week 2, day 1)): 133 ng/mL | Tmax ([1]; human, plasma, iv, tmax, gemcitabine 1000 mg m^−2 i.v. in combination with motesanib 50 mg QD (week 2, day 1)): 0.5 h | Tmax ([1]; human, plasma, iv, tmax, gemcitabine 1000 mg m^−2 i.v. in combination with motesanib 75 mg BID (week 2, day 1)): 0.5 h | Tmax ([1]; human, plasma, iv, tmax, gemcitabine 1000 mg m^−2 i.v. in combination with motesanib 125 mg QD (week 2, day 1)): 0.25 h | increase of mean Cmax and AUC in week 2 compared with week 1 ([1]; same patients, all motesanib dose groups): < 2 fold | metabolism by CYP3A4 (CYP3A4): not metabolised by CYP3A4

CC1(C)CNc2cc(NC(=O)c3cccnc3NCc3ccncc3)ccc21 [motesanib]
AUC(0-inf) (clinical; 125 mg): 1700 ng·h/mL | AUC(0-t) (clinical; 125 mg): 1900 ng·h/mL | Cmax (clinical; 125 mg): 421 ng/mL | concentration at 24 h (clinical; 125 mg): 6.9 ng/mL | half-life (clinical; 125 mg, t1/2,z, h (s.d.), motesanib 125 mg QD, after single-dose (week 1, day 2), mean (s.d.)): 3.8 h | Tmax (clinical; 125 mg, tmax, h (range), motesanib 125 mg QD, after single-dose (week 1, day 2), median (range)): 1.5 h | half-life (clinical; mean t1/2,z, after multiple-dose administration in combination with gemcitabine, range over cohorts): 4.3 to 5 h | half-life (clinical; mean t1/2,z, after single-dose administration, range over cohorts): 3.8 to 5.7 h | Tmax (clinical; overall median tmax, after multiple-dose administration in combination with gemcitabine, range over cohorts): 0.83 to 2 h | Tmax (clinical; po, overall median tmax, after single-dose oral administration, range for all three dose cohorts): 0.5 to 1.5 h | half-life (clinical; t1/2,z, h (s.d.)): 5.65 h | half-life (clinical; t1/2,z, h (s.d.), motesanib 125 mg QD, after multiple-dose with gemcitabine (week 2, day 1), mean (s.d.)): 4.6 h | Tmax (clinical; tmax, h (range)): 0.57 h | Tmax (clinical; tmax, h (range), motesanib 125 mg QD, after multiple-dose with gemcitabine (week 2, day 1), median (range)): 2 h | Confirmed complete response, n (%) (advanced solid tumours; 50 mg QD cohort (n=11)): 0 (0) n (%) | Confirmed objective response, % (95% CI) (advanced solid tumours; 50 mg QD cohort (n=11)): 0 (0.0–28.5) % | Confirmed partial response, n (%) (advanced solid tumours; 50 mg QD cohort (n=11)): 0 (0) n (%) | Progressive disease, n (%) (advanced solid tumours; 50 mg QD cohort (n=11)): 7 (64) n (%) | Stable disease, n (%) (advanced solid tumours; 50 mg QD cohort (n=11)): 4 (36) n (%) | Confirmed complete response, n (%) (advanced solid tumours; 75 mg BID cohort (n=9)): 0 (0) n (%) | Confirmed objective response, % (95% CI) (advanced solid tumours; 75 mg BID cohort (n=9)): 0 (0.0–33.6) % | Confirmed partial response, n (%) (advanced solid tumours; 75 mg BID cohort (n=9)): 0 (0) n (%) | Progressive disease, n (%) (advanced solid tumours; 75 mg BID cohort (n=9)): 2 (22) n (%) | Stable disease, n (%) (advanced solid tumours; 75 mg BID cohort (n=9)): 1 (11) n (%) | Confirmed complete response, n (%) (advanced solid tumours; 125 mg QD cohort (n=6)): 0 (0) n (%) | Confirmed objective response, % (95% CI) (advanced solid tumours; 125 mg QD cohort (n=6)): 17 (0.4–64.1) % | Confirmed partial response, n (%) (advanced solid tumours; 125 mg QD cohort (n=6)): 1 (17) n (%) | Progressive disease, n (%) (advanced solid tumours; 125 mg QD cohort (n=6)): 3 (50) n (%) | Stable disease, n (%) (advanced solid tumours; 125 mg QD cohort (n=6)): 2 (33) n (%) | objective response rate (advanced solid tumours; all patients (1 of 26), with gemcitabine): 4% | patients who achieved stable disease (advanced solid tumours; all patients (7 of 26), with gemcitabine): 27% | Confirmed complete response, n (%) (advanced solid tumours; all patients (n=26)): 0 (0) n (%) | Confirmed objective response, % (95% CI) (advanced solid tumours; all patients (n=26)): 4 (0.1–19.6) % | Confirmed partial response, n (%) (advanced solid tumours; all patients (n=26)): 1 (4) n (%) | Progressive disease, n (%) (advanced solid tumours; all patients (n=26)): 12 (46) n (%) | Stable disease, n (%) (advanced solid tumours; all patients (n=26)): 7 (27) n (%) | durable stable disease ⩾24 weeks (advanced solid tumours; all patients, with gemcitabine): No patients | patients with progressive disease as best response (advanced solid tumours; all patients, with gemcitabine): 12 of 26 | IC50 (VEGFR1): […] | maximum-tolerated dose [2]: 125 mg QD | decrease of Cmax (except 125 mg QD, week 1) and AUC vs motesanib monotherapy study [3]: < 50% | tmax, h (range) [3]: 0.5 (0.25–6.0) h | mean C24 relative to in vitro IC90 of HUVEC proliferation ([3]; 24 h): […] | IC90 of HUVEC proliferation ([4]; ref Amgen Inc., data on file): 0.028 µg/mL | IC50 of HUVEC proliferation ([4]; ref Polverino et al, 2006): 0.004 µg/mL | deaths during the study ([5]; all patients, all deaths unrelated to motesanib treatment): Three patients died | target once-daily dose (maximum target dose) ([5]; in combination with gemcitabine 1000 mg m^−2): 125 mg QD | IC50 (Kit): […] | IC50 (PDGFR): 84 nM | IC50 (VEGFR3): […] | cases of cholecystitis [6]: No cases of cholecystitis occurred | motesanib-related diarrhoea [6]: 4 n | motesanib-related fatigue [6]: 3 n | motesanib-related headache [6]: 3 n | motesanib-related lethargy [6]: 6 n | motesanib-related nausea [6]: 3 n | patients with motesanib treatment-related adverse events [6]: 62%
